In this assay the test system is 4 PI3K isoforms (Human recombinant GST-PI3K). Kind of assay: PI3K scintillation proximity assay, best IC50 obtained with the four isoforms (alpha, beta, delta, gamma). It is filed as biochemical. Conditions: best IC50 obtained with the four isoforms of PI3K; read-out: Best potency measured on the 4 PI3K isoforms.
For the molecule `COCCN1CCC(Cn2nc(C(=O)N3CCOCC3)c3c2-c2ccccc2S(=O)(=O)C3)CC1` [Example 190, 1-{[1-(2-Methoxyethyl)piperidin-4-yl]methyl}-3-(morpholin-4-ylcarbonyl)-1,4-dihydrothiochromeno[4,3-c]pyrazole 5,5-dioxide], the IC50 was determined as 681 nM.
As for `CC(=O)N1CCC(Cn2nc(C(=O)N3CCOCC3)c3c2-c2ccccc2S(=O)(=O)C3)CC1` [Example 191, 1-[(1-Acetylpiperidin-4-yl)methyl]-3-(morpholin-4-ylcarbonyl)-1,4-dihydrothiochromeno[4,3-c]pyrazole 5,5-dioxide], the figure is 2820 nM; as for `O=C(c1nn(-c2ccccc2)c2c1CS(=O)(=O)c1sccc1-2)N1CCOCC1` [Example 192, 3-(Morpholin-4-ylcarbonyl)-1-phenyl-1,4-dihydrothieno[3′,2′:5,6]thiopyrano[4,3-c]pyrazole 5,5-dioxide], 1700 nM; as for `O=C(c1nn(C2CCCC(C(=O)N3CCCCC3)C2)c2c1CS(=O)(=O)c1ccccc1-2)N1CCOCC1` (centres unmarked) [Example 193, 3-(Morpholin-4-ylcarbonyl)-1-[3-(piperidin-1-ylcarbonyl)cyclohexyl]-1,4-dihydrothiochromeno[4,3-c]pyrazole 5,5-dioxide], 362 nM.
As for `Cn1cc(-n2nc(C(=O)N3CCOCC3)c3c2-c2ccsc2S(=O)(=O)C3)ccc1=O` [Example 195, 1-Methyl-5-[3-(morpholin-4-ylcarbonyl)-5,5-dioxidothieno[3′,2′:5,6]thiopyrano[4,3-c]pyrazole-1 (4H)-yl]pyridin-2 (1H)-one], the figure is 2690 nM; as for `Cc1noc(-c2cccc(-n3nc(C(=O)N4CCOCC4)c4c3-c3ccccc3S(=O)(=O)C4)c2)n1` [Example 196, 1-[3-(3-Methyl-1,2,4-oxadiazol-5-yl)phenyl]-3-(morpholin-4-ylcarbonyl)-1,4-dihydrothiochromeno[4,3-c]pyrazole 5,5-dioxide], 2690 nM; as for `O=C(c1nn(-c2cccc(-c3ccoc3)c2)c2c1CS(=O)(=O)c1ccccc1-2)N1CCOCC1` [Example 197, 1-[3-(3-Furyl)phenyl]-3-(morpholin-4-ylcarbonyl)-1,4-dihydrothiochromeno[4,3-c]pyrazole 5,5-dioxide], 826 nM.
As for `O=C(c1nn(-c2cccc(-c3cccnc3)c2)c2c1CS(=O)(=O)c1ccccc1-2)N1CCOCC1` [Example 198, 3-(Morpholin-4-ylcarbonyl)-1-(3-pyridin-3-ylphenyl)-1,4-dihydrothiochromeno[4,3-c]pyrazole 5,5-dioxide], the figure is 280 nM; as for `CCc1nc(-c2cccc(-n3nc(C(=O)N4CCOCC4)c4c3-c3ccccc3S(=O)(=O)C4)c2)no1` [Example 199, 1-[3-(5-Ethyl-1,2,4-oxadiazol-3-yl)phenyl]-3-(morpholin-4-ylcarbonyl)-1,4-dihydrothiochromeno[4,3-c]pyrazole 5,5-dioxide], 2590 nM; as for `Cc1nc(-c2cccc(-n3nc(C(=O)N4CCOCC4)c4c3-c3ccccc3S(=O)(=O)C4)c2)n[nH]1` [Example 200, 1-[3-(5-Methyl-1H-1,2,4-triazol-3-yl)phenyl]-3-(morpholin-4-ylcarbonyl)-1,4-dihydrothiochromeno[4,3-c]pyrazole 5,5-dioxide], 4860 nM.
In the case of `O=C(c1nn(C2CCCCC2)c2c1CS(=O)(=O)c1sccc1-2)N1CCOCC1` [Example 201, 1-Cyclohexyl-3-(morpholin-4-ylcarbonyl)-1,4-dihydrothieno[3′,2′:5,6]thiopyrano[4,3-c]pyrazole 5,5-dioxide], the IC50 amounted to 302 nM.
The figure for `Cc1cccc2c1S(=O)(=O)Cc1c(C(=O)N3CCOCC3)nn(-c3ccccc3)c1-2` [Example 202, 6-Methyl-3-(morpholin-4-ylcarbonyl)-1-phenyl-1,4-dihydrothiochromeno[4,3-c]pyrazole 5,5-dioxide] is 1740 nM; for `O=C(c1nn(-c2ccc3[nH]ncc3c2)c2c1CS(=O)(=O)c1ccccc1-2)N1CCOCC1` [Example 203, 1-(1H-Indazol-5-yl)-3-(morpholin-4-ylcarbonyl)-1,4-dihydrothiochromeno[4,3-c]pyrazole 5,5-dioxide] it is 1640 nM.
For `O=C(c1nn(-c2ccc3nn(Cc4ccccc4)cc3c2)c2c1CS(=O)(=O)c1ccccc1-2)N1CCOCC1` [Example 204, 1-(2-Benzyl-2H-indazol-5-yl)-3-(morpholin-4-ylcarbonyl)-1,4-dihydrothiochromeno[4,3-c]pyrazole 5,5-dioxide], the IC50 turned out to be 2080 nM.
The figure for `CN(C)S(=O)(=O)c1cccc(-n2nc(C(=O)N3CCOCC3)c3c2-c2ccccc2S(=O)(=O)C3)c1` [Example 207, N,N-Dimethvl-3-[3-(morpholin-4-ylcarbonyl)-5,5-dioxidothiochromeno[4,3-c]pyrazol-1 (4H)-yl]benzenesulfonamide] is 641 nM; for `CN1CCC(Cn2nc(C(=O)N3CCOCC3)c3c2-c2ccccc2S(=O)(=O)C3)CC1` [Example 208, 1-[(1-Methylpiperidin-4-yl)methyl]-3-(morpholin-4-ylcarbonyl)-1,4-dihydrothiochromeno[4,3-c]pyrazole 5,5-dioxide] it is 2650 nM.
The figure for `O=C(Nc1cccc(-n2nc(C(=O)N3CCOCC3)c3c2-c2ccccc2S(=O)(=O)C3)c1)N1CCOCC1` [Example 209, N-{3-[3-(Morpholin-4-ylcarbonyl)-5,5-dioxidothiochromeno[4,3-c]pyrazol-1 (4H)-yl]phenyl)morpholine-4-carboxamide] is 3590 nM; for `O=C(c1nn(-c2ccc(CN3CCOCC3)cc2)c2c1CS(=O)(=O)c1ncccc1-2)N1CCOCC1` [Example 211] it is 400 nM; for `CNc1cccc2c1S(=O)(=O)Cc1c(C(=O)N3CCOCC3)nn(-c3ccccc3)c1-2` [Example 212, N-Methyl-3-(morpholin-4-ylcarbonyl)-1-phenyl-1,4-dihydrothiochromeno[4,3-c]pyrazol-6-amine 5,5-dioxide] it is 3510 nM.
The figure for `COCc1noc(-c2cccc(-n3nc(C(=O)N4CCOCC4)c4c3-c3ccccc3S(=O)(=O)C4)c2)n1` [Example 214, 1-{3-[3-(Methoxymethyl)-1,2,4-oxadiazol-5-yl]phenyl)-3-(morpholin-4-ylcarbonyl)-1,4-dihydrothiochromeno[4,3-c]pyrazole 5,5-dioxide] is 4190 nM; for `O=C(c1nn(C2CCC(CN3CCOCC3)CC2)c2c1CS(=O)(=O)c1ccccc1-2)N1CCOCC1` (centres unmarked) [Example 215, 3-(Morpholin-4-ylcarbonyl)-1-[4-(morpholin-4-ylmethyl)cyclohexyl]-1,4-dihydrothiochromeno[4,3-c]pyrazole 5,5-dioxide] it is 912 nM.
Turning to `O=C(c1nn(-c2ccc(CN3CCOCC3)nc2)c2c1CS(=O)(=O)c1ccccc1-2)N1CCOCC1` [Example 216, 3-(Morpholin-4-ylcarbonyl)-1-[6-(morpholin-4-ylmethyl)pyridin-3-yl]-1,4-dihydrothiochromeno[4,3-c]pyrazole 5,5-dioxide], the IC50 is 614 nM.
With `O=C(c1nn(-c2ccc(CN3CCC(F)CC3)nc2)c2c1CS(=O)(=O)c1ccccc1-2)N1CCOCC1` [Example 217, 1-{6-[(4-Fluoropiperidin-1-yl)methyl]pyridin-3-yl}-3-(morpholin-4-ylcarbonyl)-1,4-dihydrothiochromeno[4,3-c]pyrazole 5,5-dioxide], the IC50 was found to be 1200 nM.

Source of the values: patent US9073940B2, “Tricyclic pyrazol amine derivatives” (MERCK SERONO SA, priority 2009, dated 2015).
